Where a chain is given by its changes, count along the chain named. Read-outs that look alike come from different tables or passages of the source.
Legend:
[1] = target: T1, maize endosperm AGPase, large subunit variant RGRR (Q96R, D161G, A443R, S444R; numbering of SEQ ID NO: 20) (Zea mays, UniProt P55241+Q84PF5, A443R/D161G/Q96R/S444R); experiment: Apparent kinetic constants with 3-PGA, 37° C., RGRR; assay type: biochemical; conditions: read-out: ATP Km
T1 sequence (P55241 46-516 A443R/D161G/Q96R/S444R): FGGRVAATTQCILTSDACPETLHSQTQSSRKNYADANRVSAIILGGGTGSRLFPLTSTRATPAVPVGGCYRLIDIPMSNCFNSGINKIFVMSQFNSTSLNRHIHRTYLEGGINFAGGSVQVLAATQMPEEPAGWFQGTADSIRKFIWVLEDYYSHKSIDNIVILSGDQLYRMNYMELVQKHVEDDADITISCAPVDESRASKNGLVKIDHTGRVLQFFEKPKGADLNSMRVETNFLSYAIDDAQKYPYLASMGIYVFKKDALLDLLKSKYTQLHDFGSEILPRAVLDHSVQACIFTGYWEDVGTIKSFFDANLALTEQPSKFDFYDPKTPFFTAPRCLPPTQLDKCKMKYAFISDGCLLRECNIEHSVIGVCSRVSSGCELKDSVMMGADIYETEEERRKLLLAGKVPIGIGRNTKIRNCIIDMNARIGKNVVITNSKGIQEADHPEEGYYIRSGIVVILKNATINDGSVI
T1 sequence (Q84PF5 1-474): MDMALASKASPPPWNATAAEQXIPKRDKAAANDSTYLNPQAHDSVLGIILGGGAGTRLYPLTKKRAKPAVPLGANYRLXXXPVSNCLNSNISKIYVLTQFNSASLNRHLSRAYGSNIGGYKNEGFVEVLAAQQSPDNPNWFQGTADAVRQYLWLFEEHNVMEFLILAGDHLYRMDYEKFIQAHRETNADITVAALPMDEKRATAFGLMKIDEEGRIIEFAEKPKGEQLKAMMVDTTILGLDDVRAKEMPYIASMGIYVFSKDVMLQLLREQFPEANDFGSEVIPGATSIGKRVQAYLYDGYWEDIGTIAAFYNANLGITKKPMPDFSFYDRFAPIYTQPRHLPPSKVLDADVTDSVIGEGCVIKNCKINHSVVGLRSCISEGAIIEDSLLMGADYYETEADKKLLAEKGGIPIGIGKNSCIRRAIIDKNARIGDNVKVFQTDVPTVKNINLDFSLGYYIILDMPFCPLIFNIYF
Source text: The small and large subunit plasmids of maize endosperm AGPase (pMONcBt2 and pMONcSh2, respectively) (Giroux et al., 1996) were expressed in E. coli AC70R1-504 cells (Iglesias et al., 1993) as previously described (Boehlein et al., 2008).
An endpoint assay was used to determine the rate of the AGPase reaction by coupling the formation of PPi to a decrease in NADH concentration (Boehlein et al., 2008). […] The Michaelis constants (Km) were obtained by varying one substrate in the presence of saturating concentrations of the second substrate. The activation constants were obtained by varying the activator at fixed levels of both substrates. All reactions were performed at 37° C. and mixes were prewarmed before starting the reaction with enzyme. […] The absorbance at 340 nm was monitored after 30 min and the amount of PPi produced was determined from a standard curve using PPi in complete reaction mixtures lacking AGPase. Blank samples contained complete reaction mixtures without enzyme and the change in absorbance between the blank and the reaction was used to calculate the amount of PPi produced. […]
The apparent Michaelis constant and maximum velocity of each reaction was calculated from a V vs. S plots using nonlinear regression analysis and the following equation, v=VmaxS/(Km+S), where v is the measured velocity, Vmax is the maximum velocity, S is the substrate concentration. […]

[2] = test system: maize endosperm AGPase, wild type; conditions: cited from earlier work
[3] = test system: maize endosperm AGPase, evolutionary mutant SH2-E (SH2E); conditions: presence of 3-PGA, ATP varied, Pi inhibition, NC, read-out: Km (ATP); cited from earlier work
[4] = target: T2, maize endosperm AGPase, large subunit variant GGR (Q96G, D161G, A443R; numbering of SEQ ID NO: 20) (Zea mays, UniProt P55241+Q84PF5, A443R/D161G/Q96G); experiment: Pi inhibition in the absence of 3-PGA, GGR; assay type: biochemical
T2 sequence (P55241 46-516 A443R/D161G/Q96G): T1 sequence (P55241 46-516 A443R/D161G/Q96R/S444R) with R51G, R399S
T2 sequence (Q84PF5 1-474): T1 sequence (Q84PF5 1-474)
Method: Next, the kinetics of the GGR mutant were further investigated by following Pi inhibition in the presence and absence of 3-PGA. Experiments were performed by keeping both substrates constant and non-saturating at several fixed concentrations of Pi.
A similar examination of the Pi inhibition was then followed with GGR in the absence of 3-PGA.

For Nc1ncnc2c1ncn2[C@@H]1O[C@H](COP(=O)(O)OP(=O)(O)OP(=O)(O)O)[C@@H](O)[C@H]1O [ATP], the Km [1] is listed as 38 µM, the Km ([2]; Maize wt, absence of 3-PGA, ATP varied, Pi inhibition, P-MT, read-out: Km (ATP)) is listed as 20400 µM and the Km ([2]; wt maize AGPase, absence of activator, Pi inhibition assay, read-out: Km for both substrates) is listed as > 20000 µM. The Km [3] was 210 µM, the “ATP Km, fold lower than wt AGPase” value ([4]; Pi inhibition assay) was “approximately 40 fold” and the Km ([4]; read-out: Km (ATP), ATP varied, Pi inhibition, NC) was 540 µM.

Reference: patent publication US9650616B2, “Methods for increasing grain yield” (University of Florida Research Foundation, Inc., priority 2014, dated 2017)
